For series [1], the system named is MelanoDerm tissue (MEL-300-B). Kind of series: Macroscopic skin lightening of fixed MelanoDerm tissue. In kind it is cell-based, human. The note with it: fixed tissues. On the procedure:
(§1) The effects of the test articles on skin color, melanin production, melanocyte morphology and dendricity and tissue morphology were assessed using MelanoDerm tissue (MEL-300-B). MelanoDerm tissue is another epidermal equivalent system from the MatTek Corporation of Ashland, Mass. This system consists of normal, human-derived epidermal keratinocytes (NHEK) and melanocytes (NHM) which have been cultured to form a multilayered, highly differentiated model of the human epidermis. The NHM within co-cultures undergo spontaneous melanogenesis leading to tissue pigmentation. The MEL-300-B system contains melanocytes derived from a donor.
On Day zero of the study, prior to exposure to any test articles, MelanoDerm tissue samples were placed into wells on plates containing maintenance medium that had been pre-warmed to about 37° C. (Long life maintenance medium, EPI-100-LLMM). The Melanoderm tissue samples were then incubated for about an hour in a humidified incubator maintained at a temperature of about 37° C. in an atmosphere of about 5% CO2. Following incubation, the maintenance medium was removed by aspiration. A cell culture stand was then placed in each well on the plate containing a MelanoDerm tissue sample. About 5 mL of fresh maintenance medium pre-warmed to about 37° C. was then added to each well having a MelanoDerm tissue sample. […]

Series [2] has as its system MelanoDerm tissue (MEL-300-B). In words: Melanin assay on MelanoDerm tissue (MEL-300-B). In kind it is cell-based, human. Further details: % melanin content relative to the Negative Control / % melanin content relative to the Positive Control: concentration or dose not given beside the values. As to conditions: for Melanin content of the two tested samples for each test article: 25 μL applied Days 0, 1, 3, 6, 8. On the procedure:
as §1
On Day zero of the study, prior to exposure to any test articles, MelanoDerm tissue samples were placed into wells on plates containing maintenance medium that had been pre-warmed to about 37° C. (Long life maintenance medium, EPI-100-LLMM). The Melanoderm tissue samples were then incubated for about an hour in a humidified incubator maintained at a temperature of about 37° C. in an atmosphere of about 5% CO2. Following incubation, the maintenance medium was removed by aspiration. A cell culture stand was then placed in each well on the plate containing a MelanoDerm tissue sample. About 5 mL of fresh maintenance medium pre-warmed to about 37° C. was then added to each well having a MelanoDerm tissue sample. Then a cell culture insert was placed on top of each cell culture stand. 25 μL portions of each of GS, SB, A, FS, DG, Mix, negative control, and positive control were applied by pipette to six separate MelanoDerm tissue samples for each test article being tested (e.g., GS was applied to six tissue samples in six different wells). 25 μL portions of each of the test articles and controls were also applied to the same MelanoDerm tissue samples on Days, 1, 3, 6, and 8 of the study for each sample remaining (some samples were used for testing). Throughout the study, the maintenance medium was changed every two days to maintain the MelanoDerm tissue samples.
On each of Days 3, 7, 10, and 14, one tissue sample for each test article and control was fixed with formalin, photographed to document macroscopic darkening, microscopically observed to examine melanocyte morphology and dendricity, then processed for histology. On Days 10 and 14, two tissue samples for each test article and control were frozen and later assayed for melanin content.
To assay the tissues for melanin content, the frozen tissues were thawed and placed in Dulbecco's phosphate buffered saline (D-PBS) to remove excess phenol red from the maintenance medium. The tissues were removed from the D-PBS and each tissue was blotted dry and placed in a separate 1.7 ml microfuge tube. To each microfuge tube 250 μl of a tissue and gel solubilizer was added (Solvable™, 0.5 M—Packard BioScience Co. Catalogue No. 6NE9 100 (NEF910)). Dilutions for creating a standard curve were also prepared containing from 0-250 μg of melanin (Sigma cat. M 8631) in a total of 250 μl Solvable™. The tissues were incubated in their tubes overnight at about 60° C. overnight along with the dilutions. The tissue samples were then vortexed. Then the tissue samples were centrifuged at 13,000 rpm for 5 minutes to pellet. The supernatant from the tissue samples was collected. 250 μl of the supernatant from each tissue sample as well as the dilutions were then added to separate wells of a microwell plate. The plate was read at 490 nm. The optical densities of the dilutions were used to prepare a standard curve against which the optical densities of the tissue sample supernatants could be compared to determine the melanin content of the tissue samples. […]

Series [3] relates to EpiDerm tissue (normal, human-derived epidermal keratinocytes). In words: MTT tissue viability assay on EpiDerm tissue. In kind it is cell-based. As to conditions: 48 hours of exposure, negative control = 100%. On the procedure: The effect of the tested articles on cell viability was determined with an MTT assay. 10 μL and 25 μL portions of each of GS, SB, A, FS, DG and Mix were applied to separate duplicate samples of EpiDerm tissue (e.g., GS was applied to four tissue samples, with two samples receiving 10 μL and two samples receiving 25 μL of GS). 25 μL of the negative control was applied to each of three separate samples of EpiDerm tissue. EpiDerm tissue is an epidermal equivalent system from the MatTek Corporation of Ashland, Mass., consisting of normal, human-derived epidermal keratinocytes (NHEK) which have been cultured to form a multilayered, highly differentiated model of the human epidermis. After 48 hours of exposure to the test article or negative control each sample was rinsed with phosphate buffered saline (PBS) and the viability of the tissue (referenced to the negative control) was determined using the MTT tissue viability assay.
The MTT assay determines cell viability by measuring the amount of 3-(4,5-dimethylthiazol-2-yl)-2,5-diphenyltetrazolium bromide (MTT) dye taken up by the cell cultures. Viable cells take up this dye and convert it to insoluble formazin crystals that resides in the mitochondria of the cells until extracted with alcohol. […] MTT was measured spectrophotometrically and the optical density of each sample was determined. […]
(In general: Tetrazolium dyes change colour on reduction, which living cells bring about.)

Data on two molecules can be found in patent US20080241084A1, “Compositions and methods for inhibiting melanogenesis” (Shaklee Corporation, priority 2007, published 2008).

Several values for one entry are separate records, joined by “and”; a condition that tells them apart may be missing. Equal entries are not always repeated.

Take `CC1(C)[C@@H](O[C@H]2O[C@H](C(=O)[O-])[C@@H](O)[C@H](O)[C@H]2O[C@@H]2O[C@H](C(=O)[O-])[C@@H](O)[C@H](O)[C@H]2O)CC[C@]2(C)[C@H]3C(=O)C=C4[C@@H]5C[C@@](C)(C(=O)O)CC[C@]5(C)CC[C@@]4(C)[C@]3(C)CC[C@@H]12.[K+].[K+]` [DG, dipotassium glycyrrhizate]: the “macroscopic lightening compared with the negative control” value in series [1] (Days 3, 7, 10, and 14) is “lightening effect”. Besides, in series [2] (Day 10), the “% melanin content relative to the Negative Control” value is listed as 100.6%; the “% melanin content relative to the Positive Control” value was found to be 109.5%; the Average melanin content stood at 24.8 μg/tissue; the “Melanin content of the two tested samples for each test article” value (“Melanin content … for each test article” below) is 27.3 μg/tissue and 22.3 μg/tissue. In series [2] (Day 14), the “% melanin content relative to the Negative Control” value came to 85.8%; the “% melanin content relative to the Positive Control” value is recorded as 118.7%; the Average melanin content was 31.8 μg/tissue; the “Melanin content … for each test article” value was 26.0 μg/tissue and 37.6 μg/tissue. Moreover, the “% Viability of tissue sample exposed to test article” value in series [3] (10 mL (so in the source) applied) is on record as 94.62%. Further, the “% Viability of tissue sample exposed to test article” value in series [3] (25 mL (so in the source) applied) was determined as 94.46%.
`O=c1cc(CO)occ1O` [Positive Control, kojic acid]: the “macroscopic lightening compared with the negative control” value in series [1] (Days 3, 7, and 10) was “lighter than the negative control”. Moreover, in series [2] (Day 10), the “% melanin content relative to the Negative Control” value is 91.9%; the “% melanin content relative to the Positive Control” value was found to be 100.0%; the Average melanin content is listed as 22.7 μg/tissue; the “Melanin content … for each test article” value was 25.0 μg/tissue and 20.3 μg/tissue. The “melanin content compared with the negative control (in words)” value in series [2] (Day 10 and Day 14) is reported as “lower melanin content than the negative control”. Besides, in series [2] (Day 14), the “% melanin content relative to the Negative Control” value was determined as 72.3%; the “% melanin content relative to the Positive Control” value worked out at 100.0%; the Average melanin content came out at 26.8 μg/tissue; the “Melanin content … for each test article” value is 26.6 μg/tissue and 27.0 μg/tissue.
